According to paper PMC3735122 (mBio, 2013):

Assays:
Type in all cases: cell-based, influenza virus H7N9
A/Shanghai/2/2013 virus = test: organism not typed
[1] = system: A/Shanghai/1/2013-NA^R292 (WT no. 6) virus; test: organism not typed
[2] = system: A/Shanghai/1/13 virus (mixed R/K at NA residue 292)
[3] = MDCK, read-out: 90% effective concentration [EC90]

Row | SMILES | concentration at which replication was completely inhibited (A/Shanghai/2/2013 virus) [µM] | concentration at which replication was completely inhibited [1] [µM] | sensitivity in MDCK cells compared to the A/Shanghai/2/2013 virus [1] | sensitivity in MDCK cells relative to the A/Shanghai/2/2013 virus [2] | EC90 (A/Shanghai/2/2013 virus; [3]) [µM] | EC90 [1, 3] [µM]
1 | CC(=O)N[C@H]1[C@H]([C@H](O)[C@H](O)CO)OC(C(=O)O)=C[C@@H]1N=C(N)N [zanamivir] | 125 | > 125 | reduced sensitivity |  |  | 
2 | CCC(CC)O[C@@H]1C=C(C(=O)O)C[C@H](N)[C@H]1NC(C)=O [oseltamivir carboxylate] | 31.25 | 250 | reduced sensitivity |  |  | 
3 | NC(=O)c1nc(F)c[nH]c1=O [favipiravir] |  |  |  | comparable dose-response curves | 1.43 | 10.4
